Experimental findings from ChEMBL document CHEMBL4831488, “Design, synthesis, docking, molecular dynamics and bioevaluation studies on novel N-methylpicolinamide and thienopyrimidine derivatives with inhibiting NF-κB and TAK1 activities: Cheminformatics tools RDKit applied in drug design” (Eur J Med Chem, 2021) are described below.

Each structure is given as a SMILES string. Active and inactive are the calls of the source. The rule behind the calls is not given here.

In test [1] the test system is A549. Briefly: Cytotoxicity against human A549 cells assessed as inhibition of cell growth at 20 uM measured after 72 hrs by MTT assay relative to control. It is filed as functional. (Tetrazolium assays rely on reduction of a dye to a coloured formazan, in cell work by metabolically active cells.)
Test [2] concerns A549. Briefly: Cell cycle arrest in human A549 cells assessed as accumulation at S phase at 0.6 uM measured after 24 hrs by PI staining based Flow cytometry method (reference value: 34.24%). It is filed as functional.
Test [3] concerns A549. Briefly: Cell cycle arrest in human A549 cells assessed as accumulation at G0/G1 phase at 1.2 uM measured after 24 hrs by PI staining based Flow cytometry method (reference value: 55.54%). It is filed as functional. (In flow cytometry, cells or beads pass a laser one at a time.)
Test [4] has as its system A549. Briefly: Cell cycle arrest in human A549 cells assessed as accumulation at G2/M phase at 1.8 uM measured after 24 hrs by PI staining based Flow cytometry method (reference value: 10.2%). It is filed as functional.
Test [5] concerns A549. Briefly: Cell cycle arrest in human A549 cells assessed as accumulation at S phase at 1.8 uM measured after 24 hrs by PI staining based Flow cytometry method (reference value: 34.24%). It is filed as functional.
Test [6] has as its system A549. Briefly: Induction of apoptosis in human A549 cells assessed as late apoptotic cells at 0.6 uM measured by annexinV-FITC/propidium iodide staining based flow cytometry analysis (reference value: 0.64%). It is filed as functional.
The test system of test [7] is A549. Briefly: Induction of apoptosis in human A549 cells assessed as necrotic cells at 1.8 uM measured by annexinV-FITC/propidium iodide staining based flow cytometry analysis (reference value: 0.42%). It is filed as functional.
Test [8] has as its target T1, Nuclear factor NF-kappa-B complex (Homo sapiens) (UniProt Q00653+P19838+Q04206). Briefly: Inhibition of human NF-kB in human HCT-116 cells assessed as suppression of TNF-alpha induced IkBalpha phosphorylation at 0.5 to 5 uM pretreated with compounds for 24 hrs followed by TNF-alpha stimulation for 10 mins by Western blot analysis. It is filed as cell-based. Conditions: dose 0.5-5 µM, time 1450.0 min.

Test [9] deals with T1, Nuclear factor NF-kappa-B complex (Homo sapiens). Briefly: Inhibition of human NF-kB in human HCT-116 cells assessed as suppression of TNF-alpha induced TAK1 phosphorylation at 0.5 to 5 uM pretreated with compounds for 24 hrs followed by TNF-alpha stimulation for 10 mins by Western blot analysis. It is filed as cell-based. Conditions: dose 0.5-5 µM, time 1450.0 min. On the technique in general: In western blotting, separated proteins are transferred to a membrane and probed.

The target is the same in test [10]. Briefly: Inhibition of human NF-kB in human A549 cells assessed as suppression of TNF-alpha induced IkBalpha phosphorylation at 0.5 to 5 uM pretreated with compounds for 24 hrs followed by TNF-alpha stimulation for 10 mins by Western blot analysis. It is filed as cell-based. Conditions: dose 0.5-5 µM, time 1450.0 min.

T1 sequence (P19838 whole entry, looked up): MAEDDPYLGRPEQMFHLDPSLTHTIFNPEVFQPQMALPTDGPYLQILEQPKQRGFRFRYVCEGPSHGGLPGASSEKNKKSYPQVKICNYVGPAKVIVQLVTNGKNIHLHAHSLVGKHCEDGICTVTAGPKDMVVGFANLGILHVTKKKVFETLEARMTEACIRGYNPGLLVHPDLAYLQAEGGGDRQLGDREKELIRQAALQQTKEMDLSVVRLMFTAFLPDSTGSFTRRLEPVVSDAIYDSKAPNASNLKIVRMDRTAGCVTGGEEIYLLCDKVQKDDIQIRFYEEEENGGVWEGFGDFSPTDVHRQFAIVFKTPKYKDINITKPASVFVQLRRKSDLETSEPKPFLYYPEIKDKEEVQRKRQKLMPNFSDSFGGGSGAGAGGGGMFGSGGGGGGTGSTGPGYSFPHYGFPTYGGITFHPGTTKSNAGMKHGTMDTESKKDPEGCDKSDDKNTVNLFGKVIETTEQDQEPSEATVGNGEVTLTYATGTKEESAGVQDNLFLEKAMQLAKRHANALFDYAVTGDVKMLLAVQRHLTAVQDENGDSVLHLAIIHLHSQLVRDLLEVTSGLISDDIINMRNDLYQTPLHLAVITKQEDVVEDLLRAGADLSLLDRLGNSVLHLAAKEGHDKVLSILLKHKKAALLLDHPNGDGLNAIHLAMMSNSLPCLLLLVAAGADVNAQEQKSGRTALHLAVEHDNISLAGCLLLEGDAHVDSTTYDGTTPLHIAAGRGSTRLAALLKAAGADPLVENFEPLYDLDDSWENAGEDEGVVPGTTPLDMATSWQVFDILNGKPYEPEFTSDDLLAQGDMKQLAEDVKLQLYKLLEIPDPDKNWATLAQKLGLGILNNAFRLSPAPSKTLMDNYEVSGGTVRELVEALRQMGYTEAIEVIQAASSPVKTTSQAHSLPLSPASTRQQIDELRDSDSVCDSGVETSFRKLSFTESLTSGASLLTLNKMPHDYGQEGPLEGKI
T1 sequence (Q00653 whole entry, looked up): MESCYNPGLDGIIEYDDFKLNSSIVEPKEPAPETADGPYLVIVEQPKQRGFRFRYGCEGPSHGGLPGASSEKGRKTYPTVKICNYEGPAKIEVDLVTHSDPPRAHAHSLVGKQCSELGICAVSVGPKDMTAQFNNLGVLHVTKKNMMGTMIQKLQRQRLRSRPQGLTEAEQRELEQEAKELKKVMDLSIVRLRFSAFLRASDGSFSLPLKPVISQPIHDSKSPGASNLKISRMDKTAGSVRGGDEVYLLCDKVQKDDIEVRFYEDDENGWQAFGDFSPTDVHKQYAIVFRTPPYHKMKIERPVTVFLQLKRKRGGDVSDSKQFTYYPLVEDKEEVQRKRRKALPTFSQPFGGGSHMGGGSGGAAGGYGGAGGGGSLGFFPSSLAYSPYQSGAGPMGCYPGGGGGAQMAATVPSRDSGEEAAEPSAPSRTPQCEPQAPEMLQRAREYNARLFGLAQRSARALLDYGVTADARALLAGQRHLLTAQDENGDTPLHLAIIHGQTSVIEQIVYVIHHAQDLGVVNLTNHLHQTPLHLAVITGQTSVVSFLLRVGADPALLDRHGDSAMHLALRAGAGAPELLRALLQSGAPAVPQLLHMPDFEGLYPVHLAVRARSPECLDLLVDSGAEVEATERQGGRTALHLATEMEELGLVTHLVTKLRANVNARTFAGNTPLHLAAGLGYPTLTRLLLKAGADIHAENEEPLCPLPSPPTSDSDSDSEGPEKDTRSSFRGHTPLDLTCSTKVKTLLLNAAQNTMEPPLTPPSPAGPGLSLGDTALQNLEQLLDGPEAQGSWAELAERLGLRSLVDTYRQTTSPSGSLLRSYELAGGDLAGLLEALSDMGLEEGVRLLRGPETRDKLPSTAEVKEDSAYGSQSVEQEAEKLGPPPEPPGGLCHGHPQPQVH
T1 sequence (Q04206 whole entry, looked up): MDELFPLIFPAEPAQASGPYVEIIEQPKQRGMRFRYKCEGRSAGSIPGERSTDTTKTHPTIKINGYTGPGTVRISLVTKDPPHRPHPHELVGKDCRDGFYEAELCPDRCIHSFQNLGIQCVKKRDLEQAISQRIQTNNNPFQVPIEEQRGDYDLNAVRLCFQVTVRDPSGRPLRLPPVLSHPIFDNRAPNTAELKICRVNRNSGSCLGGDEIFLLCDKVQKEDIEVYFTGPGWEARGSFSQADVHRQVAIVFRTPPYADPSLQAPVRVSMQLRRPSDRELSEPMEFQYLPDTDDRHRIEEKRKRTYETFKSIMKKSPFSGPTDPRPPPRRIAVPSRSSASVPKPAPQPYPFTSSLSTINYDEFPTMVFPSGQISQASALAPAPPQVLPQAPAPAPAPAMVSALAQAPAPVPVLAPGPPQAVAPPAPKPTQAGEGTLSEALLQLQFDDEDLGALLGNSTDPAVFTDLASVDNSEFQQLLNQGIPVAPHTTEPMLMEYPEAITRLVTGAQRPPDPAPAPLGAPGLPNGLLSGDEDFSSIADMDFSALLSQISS

Consider `CNC(=O)c1cc(Oc2ccc(Nc3nccc(N4CCCCC4)n3)cc2)ccn1`, for which the inhibition at 20 µM in the test on A549 [1] turned out to be 63.4%. Further, the Activity with A549 [2] is on record as 23.56%; in the test on A549 [3], 57.49%; with A549 [4], 30.57%; in the test with A549 [5] it was 16.65%; in the test on A549 [6], 3.46%; with A549 [7] it was 0.71%. In addition, the inhibition entry in [8], in test [9] and in [10] was “Active” in each case.

What is called inhibition is how much of the control response was suppressed.
